Assay results taken from PubChem BioAssay (NCI).
Where “and” joins values, the source holds several entries; their conditions need not be identical. Identical values can stand only once.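 Five compound concentrations were applied to cells in 96-well plates for 48 hours; endpoints were derived by simple linear interpolation of the resulting dose-response curve. At the TGI there is no net growth.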 Where a SMILES comes first, the peptide text is derived from it. The star is where a group is joined. Boc = CC(C)(C)OC(=O)*

How the values were obtained:
Experiment in all cases: NCI tumour cell line growth inhibition, 48 h
[1] = system: PC-3 prostate
[2] = system: NCI-H460 lung
[3] = system: ACHN renal
[4] = system: NCI-H522 lung
[5] = system: NCI-H23 lung
[6] = system: RPMI-8226 leukemia
[7] = system: SF-295 CNS
[8] = system: COLO 205 colon
[9] = system: HOP-92 NSCLC
[10] = system: HCC-2998 colon

SMILES	TGI [1]	TGI [2]	TGI [3] [µM]	TGI [4]	TGI [5]	TGI [6]	TGI [7]	TGI [8]	TGI [9]	TGI [10]
COc1ccc2nc(-c3ccc(O)cc3)sc2c1	45.2 µM	> 100 µM	32.5	31.2 µM	43.6 µM	0.678 µM	42.6 µM	44.6 µM	–	–
CCOC(=O)c1ccc(NCC#CCN2CCCCC2)cc1	> 100 µM	–	> 100	–	> 100 µM	> 100 µM	–	> 100 µM	> 100 µM	–
Cc1ccc(S(=O)(=O)N2CCCSCC2)cc1	> 100 µM	> 100 µM	> 100	> 100 µM	> 100 µM	–	> 100 µM	> 100 µM	> 100 µM	> 100 µM
C=CCc1cccc2cc(C(=O)Nc3ccccn3)c(=N)oc12	> 100 µM	> 100 µM	> 100	–	> 100 µM	> 100 µM	–	> 100 µM	> 100 µM	> 100 µM
C[C@@H]1CC[C@@H]2[C@@H](C1)O[C@@H]([C@H](C)OCc1ccccc1)SC2(C)C	> 100 µM	53.5 µM	37.2	40.2 µM	> 100 µM	35.1 µM	34.5 µM	34 µM	–	31.8 µM
Cc1nc2c(=O)n(C)ncc2[nH]1	> 100 µM	> 100 µM	> 100	–	> 100 µM	> 100 µM	> 100 µM	> 100 µM	–	–
Cc1ccc2c(c1)-c1nc(N)c(C#N)c(-c3ccccc3)c1CCS2(=O)=O	> 100 µM	> 100 µM	> 100	> 100 µM	> 100 µM	> 100 µM	–	> 100 µM	80.3 µM	> 100 µM
COc1ccc(SCc2cc(OCc3ccccc3)c(OCc3ccccc3)c(OCc3ccccc3)c2)cc1	3.37 µM	–	3.1	3.37 µM	3.35 µM	–	3.58 µM	8.21 µM	3.08 µM	2.85 µM
C(=C\c1ccco1)/c1cccc(/C=C/c2ccco2)n1	–	> 50 µM	> 50	> 50 µM	> 50 µM	> 50 µM	> 50 µM	> 50 µM	> 50 µM	> 50 µM
CCN(CC)C(=O)C(C)n1cc(C)c(=O)[nH]c1=O (configuration not stated)	–	> 100 µM	> 100	> 100 µM	> 100 µM	> 100 µM	> 100 µM	> 100 µM	–	> 100 µM
CC(=O)O[C@H]1[C@H](OC(=O)CC(C)(O)CC(=O)O)C[C@]2(C)C3=C(CCC2C1(C)C)[C@]1(C)CC[C@H]([C@H]2CC[C@H](C(C)(C)O)OC2O)[C@@]1(C)[C@@H](O)C3 (some centres not stated)	33.2 µM	28.6 µM	31.2	–	32.2 µM	43.8 µM	33.9 µM	–	31.1 µM	31.7 µM
O=C1c2ccc(O)c(O)c2C(=O)c2c(O)ccc(O)c21	–	49.8 µM	52.5	3.03 µM	93.8 µM	> 100 µM	78.5 µM	48.5 µM	57.7 µM	47.9 µM
CC1=C(C)Cc2c(O)ccc(O)c2C1	32.1 µM	> 100 µM	31.2	–	> 100 µM	27.2 µM	> 100 µM	34.7 µM	36.4 µM	–
C=C1C2C[C@@H]3O[C@H]4C[C@H]5O[C@@]6(C[C@@H]7O[C@]8(C[C@H](C)[C@@H]9O[C@@H]%10CC(CO)O[C@@H]%10C[C@@H]9O8)C[C@H](C)[C@@H]7O6)C[C@H]5O[C@H]4[C@H](C)[C@H]3OC(=O)C[C@H]3CC[C@@H]4OC5[C@H]6O[C@]7(CC[C@H]8CC(=C)[C@H](CC[C@@H](C[C@H]1C)O2)O8)CC6O[C@@H]5[C@@H](O7)[C@H]4O3 (some centres not stated)	> 1 µM	–	> 1	< 0.0001 µM	0.00124 µM	> 1 µM	> 1 µM	0.000322 µM	> 1 µM	–
COC(=O)C1OC(O[C@H]2CC[C@]3(C)[C@H]4CC=C5[C@@H]6CC(C)(C)CC[C@]6(C(=O)OC6OCC(O)C(O)C6OC6OC(C)C(OC7OCC(O)C(O)C7O)C(O)C6O)CC[C@@]5(C)[C@]4(C)CC[C@H]3C2(C)C)C(O)C(O)C1O (some centres not stated)	27.6 µM and 29.5 µM	> 100 µM and 43.8 µM	–	30.9 µM and 30.5 µM	29.1 µM and 30 µM	> 100 µM and 42 µM	34.8 µM and 32.2 µM	25.8 µM and 30.6 µM	30.9 µM and 39.4 µM	25.4 µM and 29.5 µM
CCN1CCC(O)(c2ccc(Cl)cc2)C(C(=O)c2ccc(Cl)cc2)C1 (configuration not stated)	–	> 100 µM	> 100	41.9 µM	> 100 µM	64.2 µM	> 100 µM	> 100 µM	> 100 µM	> 100 µM
OC(c1cc(C23CC4CC(CC(C4)C2)C3)nc2c(Cl)cc(Cl)cc12)C1CCCCN1 (configuration not stated)	3.09 µM	3.13 µM	2.94	3.33 µM	–	–	3.76 µM	–	2.67 µM	–
COc1ccc(-c2cc3[nH]nc(N)c3c(=O)o2)cc1	–	> 100 µM	> 100	–	> 100 µM	> 100 µM	> 100 µM	> 100 µM	> 100 µM	> 100 µM
COCN1C(=O)[C@@H]2CCCN2C(=O)c2cc(N)ccc21	> 100 µM	–	> 100	> 100 µM	> 100 µM	–	> 100 µM	8.86 µM	–	–
Nc1nc2c3nc(Nc4ccccc4)sc3nc(=O)n2c2sc(Nc3ccccc3)nc12	–	–	> 100	> 100 µM	> 100 µM	> 100 µM	> 100 µM	> 100 µM	> 100 µM	> 100 µM
O=C(NCCCCCCNC(=O)c1cc(-c2ccccc2)nc2ccccc12)c1cc(-c2ccccc2)nc2ccccc12	> 100 µM	> 100 µM	> 100	> 100 µM	> 100 µM	> 100 µM	> 100 µM	> 100 µM	> 100 µM	–
NC(N)=Nc1ccc(CC(N)C(=O)O)cc1 (configuration not stated)	> 12.5 µM	–	> 12.5	> 12.5 µM	> 12.5 µM	> 12.5 µM	> 12.5 µM	> 12.5 µM	> 12.5 µM	> 12.5 µM

SMILES	TGI [1]	TGI [2]	TGI [3] [µM]	TGI [4]	TGI [5]	TGI [6]	TGI [7]	TGI [8]	TGI [9]	TGI [10]
Cn1c(-c2cccc([N+](=O)[O-])c2)[n+](C)c2ccccc21	> 100 µM	> 100 µM	> 100	–	> 100 µM	> 100 µM	> 100 µM	> 100 µM	> 100 µM	> 100 µM
O=C1CC(c2ccccc2)n2cccc21 (configuration not stated)	> 100 µM	–	> 100	> 100 µM	> 100 µM	> 100 µM	> 100 µM	> 100 µM	> 100 µM	> 100 µM
COc1cc(/C=c2\sc3n(c2=O)C(c2ccc(Cl)cc2)C2=C(CCCC2C)N=3)cc(OC)c1OC (configuration not stated)	> 100 µM	–	> 100	–	–	> 100 µM	–	–	> 100 µM	–
CC(C)/C(Cl)=N\OC(=O)Nc1cccc(Cl)c1	29.7 µM	18.6 µM	18.4	3.33 µM	34 µM	25 µM	> 58.9 µM	4.61 µM	–	31.7 µM
COC(=O)C(Cc1c[nH]c2ccccc12)NC(=O)C(Cc1c[nH]c2ccccc12)NC(=O)C(Cc1c[nH]c2ccccc12)NC(=O)C(Cc1c[nH]c2ccccc12)NC(=O)C(Cc1c[nH]c2ccccc12)NC(=O)C(Cc1c[nH]c2ccccc12)NC(=O)C(Cc1c[nH]c2ccccc12)NC(=O)C(Cc1c[nH]c2ccccc12)NC(=O)OC(C)(C)C (configuration not stated) (Boc-WWWWWWWW-OMe; configuration not given here)	> 100 µM	> 100 µM	> 100	60.3 µM	> 100 µM	> 100 µM	–	–	–	> 100 µM
O=C1c2ccccc2C(=O)N1CC(O)COc1cccc2ccccc12 (configuration not stated)	> 100 µM	> 100 µM	> 100	> 100 µM	–	> 100 µM	> 100 µM	> 100 µM	–	> 100 µM
N#Cc1ccc(-n2c3ccccc3c3ccc4c(c32)C(=O)C=CC4=O)cc1	8.98 µM	44.2 µM	3.01	1.19 µM	24.4 µM	> 100 µM	28.2 µM	10.5 µM	–	18.3 µM
CN(C)c1nc(Cl)c2c(-c3ccccc3)c(-c3ccccc3)oc2n1	–	–	> 100	78.7 µM	> 100 µM	60.8 µM	> 100 µM	> 100 µM	> 100 µM	> 100 µM
C=C(C)[C@@H]1CCC2=C[C@H](OC2=O)[C@@]2(C)C[C@@H]2C2=CC(C)=C(O2)[C@H]1O	> 75 µM	> 75 µM	> 75	48.2 µM	> 75 µM	–	> 75 µM	> 75 µM	> 75 µM	> 75 µM
COc1cc(Cc2nccc3cc(OC)c(OC)cc23)c(N=NN(C)C)cc1OC	56.8 µM	22.3 µM	> 100	–	48.7 µM	39.7 µM	74.9 µM	33.8 µM	–	28.9 µM
COC(=O)c1c2cccccc-2c(Cc2c3cccccc-3c(C(=O)OC)c2O)c1O	–	> 100 µM	> 100	> 100 µM	> 100 µM	> 100 µM	> 100 µM	> 100 µM	> 100 µM	> 100 µM
Cc1ccnc(NC(NC(=O)c2ccccc2)(C(F)(F)F)C(F)(F)F)c1	> 100 µM	–	> 100	> 100 µM	> 100 µM	> 100 µM	> 100 µM	> 100 µM	> 100 µM	> 100 µM
C=C(Br)CNC(=O)CCC(=O)NCC(=C)Br	> 100 µM	> 100 µM	> 100	> 100 µM	> 100 µM	> 100 µM	> 100 µM	> 100 µM	–	> 100 µM
C=C1CCC([N+](=O)[O-])[C@](C)(N=O)CC[C@@H]2C1CC2(C)C (some centres not stated)	> 100 µM	39.6 µM	> 100	49.1 µM	33.3 µM	> 100 µM	37.6 µM	60.5 µM	44.9 µM	–
CCOC(=O)CCC(NC(=O)c1ccc(OCc2ccc3nc(-c4ccccc4)c(Cl)nc3c2)cc1)C(=O)OCC (configuration not stated)	–	> 31.6 µM	> 31.6	> 31.6 µM	> 31.6 µM	> 31.6 µM	> 31.6 µM	> 100 µM	25.5 µM	> 31.6 µM
CC(C)(C)OC(=O)N1C(c2cccnc2)=CC[C@H]2C3CC=C(c4cccnc4)[C@@]3(C)CC[C@@H]21 (some centres not stated)	19.3 µM	14.1 µM	11.3	11.9 µM	12.8 µM	5.05 µM	11.1 µM	3.19 µM	8.34 µM	–
CO/N=C(\C)CCC#Cc1ccccc1C(=O)OC	> 10 µM	> 10 µM	> 10	–	> 10 µM	> 10 µM	> 10 µM	> 10 µM	–	> 10 µM
CC(=O)O[C@H]1C(=O)[C@@]2(C)C(C(OC(=O)c3ccccc3)C3[C@@H](O)C(OC(=O)[C@@H](O)[C@H](NC(=O)c4ccccc4)c4ccc(C(F)(F)F)cc4)C(C)=C1C3(C)C)[C@]1(OC(C)=O)CO[C@@H]1C[C@@H]2O (some centres not stated)	–	> 25 µM	> 25	21.1 µM	> 25 µM	> 25 µM	> 25 µM	> 25 µM	–	> 25 µM
CCC(C#N)NCc1cccc(CNC(C#N)CC)c1 (configuration not stated)	> 100 µM	> 100 µM	> 100	> 100 µM	> 100 µM	–	33.7 µM	> 100 µM	> 100 µM	> 100 µM
Cn1c2ccccc2c(=O)c2cccc(C(=O)NC(CCC(N)=O)C(=O)O)c21 (configuration not stated)	> 100 µM	> 100 µM	> 100	–	> 100 µM	> 100 µM	> 100 µM	> 100 µM	–	> 100 µM
COc1ccc(/C=C2\CCC(C)C3=C2N=c2s/c(=C/c4cccc(Br)c4)c(=O)n2C3c2ccc(OC)c(OC)c2)cc1OC (configuration not stated)	> 100 µM	–	> 100	–	–	> 100 µM	–	–	> 100 µM	–
CCCC(=O)OC1C(CO)OC(n2cc(F)c(=O)[nH]c2=O)C1F (configuration not stated)	> 100 µM	–	> 100	> 100 µM	> 100 µM	> 100 µM	> 100 µM	> 100 µM	> 100 µM	–
